How the values were obtained:
[1] = cited from earlier work
[2] = Clinical study in endometriosis patients, pain by visual analogue scale (VAS); assay type: in vivo, human; settings: over 6 months
[3] = attributed to partial androgenic action, not progestational activity; cited from earlier work
ovulation (排卵) = settings: daily dose; no test or source given; cited from earlier work
[4] = 2 mg dienogest daily, 24 weeks, endometriosis patients

## C[C@]12CCC3=C4CCC(=O)C=C4CC[C@H]3[C@@H]1CC[C@@]2(O)CC#N [DNG]
[1]; [4]
  intolerable menstruation: 没有报道不可耐受的月经
  patients reporting irregular menstruation: ≤ 90%
  treatment result compared with danazol or GnRH agonist: 相当
[2]; DNG oral 2 mg/d (124 patients) or LA 3.75 mg s.c. every 4 weeks (128 patients), endometriosis diagnosed by laparoscopy
  change in pain (VAS) at end of treatment compared with start of study: -47.5 mm
[2]; DNG oral 2 mg/d vs LA 3.75 mg s.c. every 4 weeks
  statistical comparison of efficacy, DNG versus LA: 不劣于LA

## C#C[C@]1(O)CC[C@H]2[C@@H]3CCC4=CC(=O)CC[C@@H]4[C@H]3CC[C@@]21CC [左炔诺孕酮]
[3]
  effect on bone metabolism: 对骨代谢的正面影响

## C#C[C@]1(O)CC[C@H]2[C@@H]3CCC4=Cc5oncc5C[C@]4(C)[C@H]3CC[C@@]21C [达那唑]
[1]; human, in vivo
  side effects of standard endometriosis treatment: 显著的雄激素效应

## CC(=O)O[C@]1(C(C)=O)CC[C@H]2[C@@H]3C=C(Cl)C4=CC(=O)CC[C@]4(C)[C@H]3CC[C@@]21C [醋酸氯地孕酮]
Ovulation (排卵)
  ovulation inhibition dose: 1.7 mg

## CC(=O)O[C@]1(C(C)=O)CC[C@H]2[C@@H]3C=C(Cl)C4=CC(=O)[C@@H]5C[C@@H]5[C@]4(C)[C@H]3CC[C@@]21C [醋酸环丙孕酮]
Ovulation (排卵)
  ovulation inhibition dose: 1 mg

Reference: CN101784271A, “孕激素和(6s)-5-甲基四氢叶酸的组合在治疗子宫内膜异位症并同时减轻治疗副作用以及降低怀孕初期的先天畸形的风险中的应用” (priority 2007, dated 2008)
